Measurements from PMC10220285, “Development of an assay pipeline for the discovery of novel small molecule inhibitors of human glutathione peroxidases GPX1 and GPX4” (Redox Biology, 2023).

Legend:
GPX1 = molecular target: T1, GPX1 (Homo sapiens, UniProt P07203); test: nanoDSF thermal stabilization, GPX1; format: binding
T1 construct: made in house; host or cells: E. coli
T1 sequence (P07203 1-203): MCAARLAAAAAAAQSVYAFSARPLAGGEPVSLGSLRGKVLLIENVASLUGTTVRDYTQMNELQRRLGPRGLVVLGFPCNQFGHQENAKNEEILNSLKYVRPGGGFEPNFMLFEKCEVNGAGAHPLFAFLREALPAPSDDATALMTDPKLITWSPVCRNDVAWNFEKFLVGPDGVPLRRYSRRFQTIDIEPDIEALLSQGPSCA
Procedure: Thermal stabilization of enzyme ± DMSO or ± compound was carried out in a Prometheus NT.48 instrument (NanoTemper Technologies) with an excitation wavelength of 280 nm. Intrinsic fluorescence at 330 nm and 350 nm was monitored while heating. Capillaries were filled with ∼10 μL of a solution of GPX1/4 (1 mg/mL), ± small molecule (100 μM) or DMSO, in TES buffer and placed into the instrument. The capillaries were subjected to a temperature range from 30 to 90 °C at a ramp rate of 2 °C/min. The ratio of the recorded emission intensities (350nm/330 nm) were plotted as a function of temperature. This ratio and first derivatives were calculated using the NanoTemper software and were plotted using GraphPad Prism.

GPX4 = molecular target: T2, GPX4 (Homo sapiens, UniProt P36969); test: GR-coupled GPX4 activity assay (NADPH fluorescence, CHP substrate); format: biochemical; details: Fig. 9 pan-selenoprotein inhibitors
T2 construct: made in house; host or cells: E. coli
T2 sequence (P36969 1-170 isoform P36969-2): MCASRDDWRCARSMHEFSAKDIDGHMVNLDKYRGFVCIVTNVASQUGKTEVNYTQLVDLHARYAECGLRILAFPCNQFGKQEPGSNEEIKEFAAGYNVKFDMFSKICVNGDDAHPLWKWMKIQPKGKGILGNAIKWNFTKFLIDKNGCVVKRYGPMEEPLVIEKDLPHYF

[1] = molecular target: T3, GR (glutathione reductase) (Homo sapiens, UniProt P00390); test: GR counter-assay; format: biochemical; details: Fig. 9 pan-selenoprotein inhibitors
T3 construct: made in house
T3 sequence (P00390 44-522): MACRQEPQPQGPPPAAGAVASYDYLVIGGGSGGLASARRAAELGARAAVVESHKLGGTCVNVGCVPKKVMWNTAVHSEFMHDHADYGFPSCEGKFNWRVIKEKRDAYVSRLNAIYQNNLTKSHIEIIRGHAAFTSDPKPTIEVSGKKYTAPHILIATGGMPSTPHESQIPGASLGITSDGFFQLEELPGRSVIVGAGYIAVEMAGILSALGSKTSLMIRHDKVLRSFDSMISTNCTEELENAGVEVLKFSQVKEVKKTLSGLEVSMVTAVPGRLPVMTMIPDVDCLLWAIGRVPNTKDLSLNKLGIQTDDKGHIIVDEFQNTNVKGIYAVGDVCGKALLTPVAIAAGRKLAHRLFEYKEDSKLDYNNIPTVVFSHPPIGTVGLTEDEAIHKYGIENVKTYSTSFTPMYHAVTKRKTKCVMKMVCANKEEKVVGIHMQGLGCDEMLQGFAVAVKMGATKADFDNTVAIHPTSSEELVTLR
Procedure: The compound plates were prepared as described previously. Purified recombinant human GPX1, GPX2, GPX4, GR, and TXNRD1 were produced and purified as previously reported [[48], [49], [50]]. As production of GPX2 was not optimized at the onset of screening, only GPX1 and GPX4 underwent library screening, and GPX2 was used as a follow-up.
Follow-up and orthogonal assays were run in quadruplicate unless otherwise stated. Assay schemes are illustrated in Fig. 1.
To identify false positive compounds that interfere with the primary assay through inhibition of GR, ‘hits’ from the primary screening were run against a GR counter assay to identify this possible off-target inhibition (Fig. 1C). Briefly, 3 μL enzyme mixture (100 nM GR, 0.01% BSA in TES buffer) was dispensed into columns […] of a 1536-well black medium-binding solid-bottom plates. The no-enzyme control (0.01% BSA in TES buffer) was included in column 1 and 2. Compounds and controls (23 nL) were added to each well with a pin tool (Kalypsys), and the plates were incubated for 30 min before 2 μL of substrate mixture (1 mM GSSG 0.4 mM NADPH in TES buffer) was added to each well and absorbance at 340 nm was measured at t = 0 and t = 20 min using a ViewLux Multimodal detector (PerkinElmer).
Percent activity was determined by first calculating delta RFU (decrease in fluorescence between t = 0 and t = 20/30 min in primary GPX, GR counter-screen, and TXNRD1 assays, or increase in fluorescence between t = 0 and t = 20 min in the Monobromobimane GPX endpoint assay), and normalizing enzyme activity using median delta RFU values for DMSO-treated enzyme control, and DMSO-treated no-enzyme controls.
Compound inhibitory activity in the qHTS assays was determined by plotting dose-response data for each sample and fitting with a four-parameter logistic fit to assess IC50 values, efficacy (maximal response), and AUC (area under the curve), as previously described. Hits were classified by the quality of the concentration-response curves (CRC). Curve classes −1.1 and −1.2 being the highest-confidence actives with complete CRCs and classes −2.1 and −2.2 being lower-confidence actives with incomplete CRCs.

SMILES	GSH Binding (ΔTm) GPx1; shift in nanoDSF melting temperature (GPX1; 100 μM small molecule vs DMSO control, first or only inflection point)	thermal stabilization of GPX1 (GPX1; nanoDSF)	inhibition of GPX4 (GPX4)	inhibition of GPX4 (GPX4; listed as 2,3-dimercaptopropanesulfonic acid)	inhibition of GR [1]
CC(=O)OC[C@H]1O[C@@H]([S-])[C@H](OC(C)=O)[C@@H](OC(C)=O)[C@@H]1OC(C)=O.CCP(CC)CC.[Au+] [Auranofin]	+8.3 °C	significant shifts in the melting temperature of GPX1			
O=S(=O)(O)CC(S)CS (centres unmarked) [2,3-dimercaptopropanesulfonate]			inhibited all tested selenoproteins	inhibited all selenoproteins	not GR
